Measured values from patent publication US20210030025A1, “BLOOD-FREE DIET FOR REARING MALARIA MOSQUITO VECTORS” (UNIVERSIDADE NOVA DE LISBOA-INSTITUTO DE HIGIENE E MEDICINA …, priority 2018, published 2021).

System: vitellogenin (Vg) transcription in the female mosquito fatbody
Test: Vg expression 24 h post-feeding on diets (q-RT-PCR)
Assay type: in vivo, Anopheles coluzzii
Conditions: ΔΔCT method
Description: FIG. 2a. Effects of the fresh-blood-free diets on oogenesis: Expression of vitellogenin precursor. Relative expression was determined using the ΔΔCT method as fold change to mosquitoes fed on the ILD, where RLD-NoP and ILD-NoP represent liquid diet compositions not supplemented with peptides, blood represent conventional blood diets and the remaining RLDs and ILDs represent respectively Rich Liquid Diet and Initial Liquid Diet supplemented with the correspondent indicated peptide P1 to P6.
Oogenesis was assessed by changes in Vg expression 24 h post-feeding (FIG. 2a). Vg expression levels in the fatbodies was quantified using the ΔΔCT method a) after a blood meal, b) after microinjection with the different peptides, and c) after being fed on the various artificial diets as described in section 4. […]
Quantitative Real-time Polymerase Chain Reaction (q-RT-PCR) analysis was used to quantify the expression of Vitellogenin-1 precursor (Vg), a protein biomarker of mosquito oogenesis initiation. Vg expression levels in the fatbodies were quantified using the ΔΔCT method a) after a blood meal, b) after microinjection with the different peptides, and c) after being fed on the various artificial diets. […]
Oogenesis was assessed by changes in Vg expression 24 h post-feeding mosquitoes with the artificial diets of Examples 1 and 2 and conventional vertebrate blood diet (FIG. 2a). […]

With “Glucagon-like peptide 2 (HADGSFSDEMNTILDNLAARDFINWLIQTKITD; Glucagon-like peptide 2; UniProt P01275 146-178, looked up) [Diet P2, glucagon-like peptide 2 (1-33) (human), from Bachem]” as the substance, how does the “Vg transcript levels after feeding” value read?
The value was “significantly increased VTG expression”.
